In patent US8785445B2 (Array BioPharma Inc., priority 2008, dated 2014):
Like-named read-outs stand apart in the source and are kept apart here.

Target: T1, human DP2 (Homo sapiens, UniProt Q9Y5Y4)
T1 construct: expressed in transfected cells; membranes prepared
T1 sequence (Q9Y5Y4 1-395): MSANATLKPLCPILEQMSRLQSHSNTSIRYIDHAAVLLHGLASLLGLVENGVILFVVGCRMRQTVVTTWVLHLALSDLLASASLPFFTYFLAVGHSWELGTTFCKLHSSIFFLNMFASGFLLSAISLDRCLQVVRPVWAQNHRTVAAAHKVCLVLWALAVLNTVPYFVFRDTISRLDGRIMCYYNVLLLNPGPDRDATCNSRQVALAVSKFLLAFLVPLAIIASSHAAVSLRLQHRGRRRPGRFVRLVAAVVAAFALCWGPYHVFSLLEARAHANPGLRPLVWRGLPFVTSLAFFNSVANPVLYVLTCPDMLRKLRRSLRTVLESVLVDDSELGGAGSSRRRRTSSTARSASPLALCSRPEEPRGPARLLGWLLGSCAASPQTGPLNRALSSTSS
Assay: DP-2 binding inhibition assay (3H-PGD2, membranes of DP2-expressing K562 cells)
Experimental: The coding sequence of human DP2 was introduced into the human Leukemic cell line K562 by electroporation and stable clones expressing DP2 were obtained by limiting dilution followed by cell surface staining with a rat monoclonal antibody specific for human DP2. Membranes were prepared from one of these DP2 expressing clones and used to determine the ability of the compounds of the present invention to inhibit binding of prostaglandin D2 (PGD2) to its receptor DP2 in the presence of one or more of the following serum protein concentrations, 0.1% BSA, 1% HSA or 4% HSA, by the following procedure. […] After incubation for 60 minutes at room temperature, the assay was transferred to a filtration plate (#MAFB; Millipore Corporation, Bedford, Mass.), and washed three times with binding buffer. Radioactivity was measured by a scintillation counter (TopCount; PerkinElmer Life Sciences, Boston, Mass.). Nonspecific binding was determined by incubations in the presence of 1 μM unlabeled PGD2 or 5 μM of a known DP2 antagonist. IC50 values for inhibition of binding were determined for each compound tested from the inflexion point of a standard 4-parameter logistical curve fitted to the values obtained.

[1] = 4% HSA, read-out: EC50 (nM) 4% HSA
[2] = 0.1% BSA, read-out: EC50 (nM) 0.1% BSA
[3] = 1% HSA, read-out: EC50 (nM) 1% HSA

Row | SMILES | EC50 [1] [nM] | further results
1 | N#Cc1cc2c(cc1Oc1ccc(C(=O)Nc3cccc(-c4ccc(C(F)(F)F)cc4)n3)cc1)OCCC2C(=O)O (stereo not drawn) [Example 42, 6-Cyano-7-(4-(6-(4-(trifluoromethyl)phenyl)pyridin-2-ylcarbamoyl)-phenoxy)chroman-4-carboxylic acid] | 36.1 | –
2 | O=C(Nc1cccc(-c2ccc(Cl)cc2)n1)c1ccc(Oc2cc3c(cc2Cl)C(C(=O)O)CCO3)cc1 (stereo not drawn) [Example 33, 6-Chloro-7-(4-(6-(4-chlorophenyl)pyridin-2-ylcarbamoyl)phenoxy)chroman-4-carboxylic acid] | 30 | –
3 | COc1cc(Cl)ccc1-c1cccc(NC(=O)c2ccc(Oc3cc4c(cc3Cl)C(C(=O)O)CCO4)cc2)n1 (stereo not drawn) [Example 104, Sodium 6-chloro-7-(4-(6-(4-chloro-2-methoxyphenyl)pyridin-2-ylcarbamoyl)phenoxy)chroman-4-carboxylate] | 116 | –
4 | O=C(Nc1nc(-c2ccc(F)c(F)c2)cs1)c1ccc(Oc2cc3c(cc2Cl)C(C(=O)O)CCO3)cc1 (stereo not drawn) [Example 154, 6-chloro-7-(4-(4-(3,4-difluorophenyl)thiazol-2-ylcarbamoyl)phenoxy)chroman-4-carboxylic acid] | 59 | –
5 | O=C(Nc1cc(C(F)(F)F)ccn1)c1ccc(Oc2cc3c(cc2Cl)C(C(=O)O)CCO3)cc1 (stereo not drawn) [Example 31, 6-Chloro-7-(4-(4-(trifluoromethyl)pyridin-2-ylcarbamoyl)phenoxy)chroman-4-carboxylic acid] | 1730 | –
6 | O=C(Nc1nccc(-c2ccc(C(F)(F)F)cc2)n1)c1ccc(Oc2cc3c(cc2Cl)C(C(=O)O)CCO3)cc1 (stereo not drawn) [Example 130, 6-Chloro-7-(4-(4-(4-(trifluoromethyl)phenyl)pyrimidin-2-ylcarbamoyl)phenoxy)chroman-4-carboxylic acid] | 139 | –
7 | O=C(Nc1cccc(-c2ccccc2)n1)c1ccc(Oc2cc3c(cc2Cl)C(C(=O)O)CCO3)cc1 (stereo not drawn) [Example 27, 6-chloro-7-(4-(6-phenylpyridin-2-ylcarbamoyl)phenoxy)chroman-4-carboxylic acid] | 173 | –
8 | CC(C)(C)c1csc(CCNC(=O)c2ccc(Oc3cc4c(cc3Cl)C(C(=O)O)CCO4)cc2)n1 (stereo not drawn) [Example 222, 7-(4-(2-(4-tert-butylthiazol-2-yl)ethylcarbamoyl)phenoxy)-6-chlorochroman-4-carboxylic acid] | 1070 | –
9 | COc1ccc(CCNC(=O)c2ccc(Oc3cc4c(cc3Cl)C(C(=O)O)CCO4)cc2)c(OC)n1 (stereo not drawn) [Example 140, Sodium 6-chloro-7-(4-(2-(2,6-dimethoxypyridin-3-yl)ethylcarbamoyl)phenoxy)chroman-4-carboxylate] | – | EC50 (EC50 (nM) 4% HSA, 4% HSA): 107 nM
10 | O=C(Nc1ccc(F)c(-c2ccc(Cl)cc2)n1)c1ccc(Oc2cc3c(cc2Cl)C(C(=O)O)CCO3)cc1 (stereo not drawn) [Example 44, Sodium 6-Chloro-7-(4-(6-(4-chlorophenyl)-5-fluoropyridin-2-ylcarbamoyl)phenoxy)chroman-4-carboxylate] | 5000 | –
11 | N#Cc1cc2c(cc1Oc1ccc(C(=O)Nc3nc4c(Cl)cccc4s3)cc1)OCCC2C(=O)O (stereo not drawn) [Example 199] | – | EC50 [2]: 10.8 nM
12 | O=C(Nc1ccc2cc(Cl)ccc2n1)c1ccc(Oc2cc3c(cc2Cl)C(C(=O)O)CCO3)cc1 (stereo not drawn) [Example 30, 6-Chloro-7-(4-(6-chloroquinolin-2-ylcarbamoyl)phenoxy)chroman-4-carboxylic acid] | 134 | EC50 [2]: 13 nM; EC50 [3]: 120 nM
13 | CN(C)c1nc(C2CC2)ccc1CCNC(=O)c1ccc(Oc2cc3c(cc2Cl)C(C(=O)O)CCO3)cc1 (stereo not drawn) [Example 187, 6-Chloro-7-(4-(2-(6-cyclopropyl-2-(dimethylamino)pyridin-3-yl)ethylcarbamoyl)phenoxy)chroman-4-carboxylic acid] | 45.2 | –
14 | O=C(Nc1ccn(-c2ccccc2Cl)n1)c1ccc(Oc2cc3c(cc2Cl)C(C(=O)O)CCO3)cc1 (stereo not drawn) [Example 174, 6-chloro-7-(4-(1-(2-chlorophenyl)-1H-pyrazol-3-ylcarbamoyl)phenoxy)chroman-4-carboxylic acid] | 47.1 | –
15 | O=C(Nc1cncc(-c2ccc(Cl)cc2)c1)c1ccc(Oc2cc3c(cc2Cl)C(C(=O)O)CCO3)cc1 (stereo not drawn) [Example 126, 6-Chloro-7-(4-(5-(4-chlorophenyl)pyridin-3-ylcarbamoyl)phenoxy)chroman-4-carboxylic acid] | 469 | –
16 | O=C(Nc1ccn(-c2ccc(Cl)cc2)n1)c1ccc(Oc2cc3c(cc2Cl)C(C(=O)O)CCO3)cc1 (stereo not drawn) [Example 175, 6-chloro-7-(4-(1-(4-chlorophenyl)-1H-pyrazol-3-ylcarbamoyl)phenoxy)chroman-4-carboxylic acid] | 80.7 | –

Row | SMILES | EC50 [1] [nM] | further results
17 | O=C(Nc1cncc(-c2cccc(Cl)c2)c1)c1ccc(Oc2cc3c(cc2Cl)C(C(=O)O)CCO3)cc1 (stereo not drawn) [Example 127, 6-Chloro-7-(4-(5-(3-chlorophenyl)pyridin-3-ylcarbamoyl)phenoxy)chroman-4-carboxylic acid] | 690 | –
18 | O=C(Nc1cccc(-c2ccc(Cl)cc2)n1)c1ccc(Oc2c(Cl)cc3c(c2C2CC2)OCCC3C(=O)O)cc1 (stereo not drawn) [Example 108, Sodium 6-chloro-7-(4-(6-(4-chlorophenyl)pyridin-2-ylcarbamoyl)phenoxy)-8-cyclopropylchroman-4-carboxylate] | 144 | EC50 [2]: 8 nM
19 | O=C(Nc1ccc(-c2ccccc2Cl)cn1)c1ccc(Oc2cc3c(cc2Cl)C(C(=O)O)CCO3)cc1 (stereo not drawn) [Example 117, 6-Chloro-7-(4-(5-(2-chlorophenyl)pyridin-2-ylcarbamoyl)phenoxy)chroman-4-carboxylic acid] | 264 | –
20 | O=C(Nc1nc(-c2ccc(F)cc2)cs1)c1ccc(Oc2cc3c(cc2Cl)C(C(=O)O)CCO3)cc1 (stereo not drawn) [Example 153, 6-chloro-7-(4-(4-(4-fluorophenyl)thiazol-2-ylcarbamoyl)phenoxy)chroman-4-carboxylic acid] | 67.5 | –
21 | O=C(Nc1ccc2cc(Cl)ccc2n1)c1ccc(Oc2cc3c(cc2Cl)[C@H](C(=O)O)CCO3)cc1 (single isomer, unassigned; enantiomer 1) [Example 36, 6-Chloro-7-(4-(6-chloroquinolin-2-ylcarbamoyl)phenoxy)chroman-4-carboxylic acid, Enantiomer 1] | 84 | –
22 | Cc1cnc(NC(=O)c2ccc(Oc3cc4c(cc3C#N)C(C(=O)O)CCO4)cc2)s1 (stereo not drawn) [Example 176, 6-cyano-7-(4-(5-methylthiazol-2-ylcarbamoyl)phenoxy)chroman-4-carboxylic acid] | – | EC50 [2]: 62.7 nM
23 | O=C(Nc1cccc(-c2ccc(Cl)cc2)n1)c1ccc(Oc2cc3c(cc2Cl)[C@@H](C(=O)O)CCO3)cc1 (single isomer, unassigned; enantiomer 1) [Example 141, 6-Chloro-7-(4-(6-(4-chlorophenyl)pyridin-2-ylcarbamoyl)phenoxy)chroman-4-carboxylic acid, Enantiomer 1] | 3920 | –
24 | O=C(Nc1nc(-c2ccccc2)ns1)c1ccc(Oc2cc3c(cc2Cl)C(C(=O)O)CCO3)cc1 (stereo not drawn) [Example 163, 6-chloro-7-(4-(3-phenyl-1,2,4-thiadiazol-5-ylcarbamoyl)phenoxy)chroman-4-carboxylic acid] | 564 | –
25 | COc1nc(C2CC2)ccc1CCNC(=O)c1ccc(Oc2cc3c(cc2Cl)C(C(=O)O)CCO3)cc1 (stereo not drawn) [Example 184, Sodium 6-Chloro-7-(4-(2-(6-cyclopropyl-2-methoxypyridin-3-yl)ethylcarbamoyl)phenoxy)chroman-4-carboxylate] | 42.1 | –
26 | O=C(Nc1nccc(-c2ccc(Cl)cc2)n1)c1ccc(Oc2cc3c(cc2Cl)C(C(=O)O)CCO3)cc1 (stereo not drawn) [Example 132, 6-Chloro-7-(4-(4-(4-chlorophenyl)pyrimidin-2-ylcarbamoyl)phenoxy)chroman-4-carboxylic acid] | 128 | –
27 | O=C(Nc1ccc(C(F)(F)F)nc1)c1ccc(Oc2cc3c(cc2Cl)C(C(=O)O)CCO3)cc1 (stereo not drawn) [Example 29, 6-Chloro-7-(4-(6-(trifluoromethyl)pyridin-3-ylcarbamoyl)phenoxy)chroman-4-carboxylic acid] | 49.5 | EC50 [2]: 34.7 nM; EC50 [3]: 661 nM
28 | O=C(Nc1ccc(-c2cccc(C(F)(F)F)c2)cn1)c1ccc(Oc2cc3c(cc2Cl)C(C(=O)O)CCO3)cc1 (stereo not drawn) [Example 119] | 422 | –
29 | O=C(Nc1cccc(-c2ccc(F)c(F)c2)n1)c1ccc(Oc2cc3c(cc2Cl)C(C(=O)O)CCO3)cc1 (stereo not drawn) [Example 81, 6-Chloro-7-(4-(6-(3,4-difluorophenyl)pyridin-2-ylcarbamoyl)phenoxy)chroman-4-carboxylic acid] | 97.9 | –
30 | O=C(Nc1ccnc(-c2ccc(Cl)cc2)n1)c1ccc(Oc2cc3c(cc2Cl)C(C(=O)O)CCO3)cc1 (stereo not drawn) [Example 100, sodium 6-chloro-7-(4-(2-(4-chlorophenyl)pyrimidin-4-ylcarbamoyl)phenoxy)chroman-4-carboxylate] | 46 | –
31 | O=C(Nc1ccc2ccccc2n1)c1ccc(Oc2cc3c(cc2Cl)C(C(=O)O)CCO3)cc1 (stereo not drawn) [Example 23, 6-Chloro-7-(4-(quinolin-2-ylcarbamoyl)phenoxy)chroman-4-carboxylic acid] | 586 | –
